This note sets out measurements from patent US11999747B2, “Furoquinolinediones as inhibitors of TDP2” (THE UNITED STATES OF AMERICA, AS REPRESENTED BY THE …, priority 2015, dated 2024).

In one assay the target is T1, recombinant human TDP2 (Homo sapiens, UniProt O95551).
T1 sequence (O95551 1-362): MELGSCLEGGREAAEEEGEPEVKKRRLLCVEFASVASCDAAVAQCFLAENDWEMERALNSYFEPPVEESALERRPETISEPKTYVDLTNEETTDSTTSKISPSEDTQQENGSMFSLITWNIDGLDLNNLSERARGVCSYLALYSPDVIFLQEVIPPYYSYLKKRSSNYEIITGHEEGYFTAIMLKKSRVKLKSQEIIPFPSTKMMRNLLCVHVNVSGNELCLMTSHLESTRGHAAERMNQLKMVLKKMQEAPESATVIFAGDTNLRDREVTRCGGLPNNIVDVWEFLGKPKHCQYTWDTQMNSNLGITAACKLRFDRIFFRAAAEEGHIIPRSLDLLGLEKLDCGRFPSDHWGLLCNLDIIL
In words: Recombinant Tdp2 assay (gel-based, 18-mer ssDNA substrate). The format is biochemical. Conditions: recombinant human TDP2, 25 pM, 15 min, room temperature; read-out: REC TDP2. Here is the method: TDP2 reactions were carried out as described previously (Example 52) with the following modifications. The 18-mer single-stranded oligonucleotide DNA substrate (α^32P-cordycepin-3′-labeled) was incubated at 1 nM with 25 pM recombinant human TDP2 in the absence or presence of inhibitor for 15 min at room temperature in a buffer containing 50 mM Tris-HCl, pH 7.5, 80 mM KCl, 5 mM MgCl2, 0.1 mM EDTA, 1 mM DTT, 40 μg/mL BSA, and 0.01% Tween 20. Reactions were terminated and treated similarly to WCE and recombinant TDP1 reactions (see Examples 52 and 53).
(§1) All compounds were prepared by the methods shown in Examples 1 to 50. Routine changes in starting materials and reaction conditions, readily apparent to those of skill in the art, were used to make the particular compounds disclosed in Table 1. […] A standard Tdp2 inhibition assay, such as the assay of Example 53, is used to determine the IC50's for the compounds. LC methods are given in the General Methods section.

The target of another assay is T2, human TDP2 (hTDP2) (Homo sapiens, UniProt O95551).
T2 construct: expressed in transfected cells; host or cells: DT40 (chicken) TDP1-/- knockout cells complemented with human TDP2; whole cell extract
T2 sequence (O95551 1-362): T1 sequence (O95551 1-362)
In words: Whole cell extract Tdp2 assay (DT40 TDP1-/- cells complemented with human TDP2). The assay is classed as biochemical. Conditions: whole cell extract 4 μg/mL of DT40 cells expressing hTDP2, 15 min, room temperature; read-out: WCE hTDP2. As for the experimental part:
DT40 knockout cells (1×10^7) for Tdp1 (TDP1−/−) complemented with human TDP2 (hTDP2) were collected, washed, and centrifuged. Cell pellets were then lysed and stored similarly to hTDP1 extracts (see above). The 18-mer single-stranded oligonucleotide was incubated at 1 nM with 4 μg/mL of whole cell extracts in the absence or presence of inhibitor for 15 min at room temperature in the WCE buffer containing 50 mM Tris HCl, pH 7.5, 80 mM KCl, 5 mM MgCl2, 2 mM EDTA, 1 mM DTT, 40 μg/mL BSA, and 0.01% Tween-20. Reactions were terminated by the addition of 1 volume of gel loading buffer [99.5% (v/v) formamide, 5 mM EDTA, 0.01% (w/v) xylene cyanol, and 0.01% (w/v) bromophenol blue]. Samples were then treated and run similarly to the hTDP1 whole cell extract (Example 51).
as §1

Take `COc1ccc(NC(=O)c2c(C)oc3c2C(=O)c2ncccc2C3=O)cc1` [Compound 19]: the IC50 at recombinant human TDP2 is more than 111 µM.
As for `Cc1oc2c(c1C(=O)Oc1cccc(Cl)c1)C(=O)c1ncccc1C2=O` [Compound 23], the figures for the IC50 at recombinant human TDP2 and on human TDP2 (hTDP2) were 12 to 37 µM and 1 to 12 µM, respectively.
For `CCOC(=O)c1c(CBr)oc2c1C(=O)c1ncccc1C2=O` [Compound 63], in that order: 12 to 37 µM and 1 to 12 µM.
Regarding `C=CC(=O)Nc1cccc(OC(=O)c2c(C)oc3c2C(=O)c2ncccc2C3=O)c1` [Compound 67], the IC50 on recombinant human TDP2 was in the range of 12 to 37 µM.
For the molecule `Cc1oc2c(c1C(=O)Oc1ccccc1OCCCN1CCOCC1)C(=O)c1ncccc1C2=O` [Compound 60], the IC50 at recombinant human TDP2 is 37 to 111 µM; on human TDP2 (hTDP2), 1 to 12 µM.
As to `CCOC(=O)c1c(C(Br)Br)oc2c1C(=O)c1ncccc1C2=O` [Compound 74], the IC50 at recombinant human TDP2 was in the range of 12 to 37 µM.
On to `CCOC(=O)c1c(-c2ccccc2)oc2c1C(=O)c1ncccc1C2=O` [Compound 30, Ethyl 4,9-dioxo-2-phenyl-4,9-dihydrofuro[2,3-g]quinoline-3-carboxylate], for which the IC50 on recombinant human TDP2 and on human TDP2 (hTDP2) was 12 to 37 µM in each case.
Regarding `CCOC(=O)c1c(C)oc2c1C(=O)c1ccccc1C2=O` [Compound 3, Ethyl 2-methyl-4,9-dioxo-4,9-dihydronaphtho[2,3-b]furan-3-carboxylate], the IC50 at recombinant human TDP2 was in the range of 37 to 111 µM.
`CCOC(=O)c1c(C)oc2c1C(=O)c1cccnc1C2=O` [Compound 1, Ethyl 2-methyl-4,9-dioxo-4,9-dihydrofuro[3,2-g]quinoline-3-carboxylate]: the IC50 at recombinant human TDP2 and at human TDP2 (hTDP2) was 37 to 111 µM each time.
With `COC(=O)c1c(C)oc2c1C(=O)c1ncccc1C2=O` [Compound 41], the IC50 lay within 12 to 37 µM at recombinant human TDP2 and 1 to 12 µM on human TDP2 (hTDP2).
Consider `CCOC(=O)c1c(CN2CCN(C(C)=O)CC2)oc2c1C(=O)c1ncccc1C2=O` [Compound 71], for which, at recombinant human TDP2, the IC50 was in the range of 12 to 37 µM.
The same measure, in the same setting: for `CC(C)(C)OC(=O)Nc1ccc(OC(=O)c2coc3c2C(=O)c2ncccc2C3=O)cc1` [Compound 69] the value was 12 to 37 µM.
`Cc1oc2c(c1C(=O)O)C(=O)c1ncccc1C2=O` [Compound 7, 2-methyl-4,9-dioxo-4,9-dihydrofuro[2,3-g]quinoline-3-carboxylic acid]: the IC50 on recombinant human TDP2 and at human TDP2 (hTDP2) was 37 to 111 µM in each case.
Turning to `C#CCCOC(=O)c1c(C)oc2c1C(=O)c1ncccc1C2=O` [Compound 43], the IC50 at recombinant human TDP2 and at human TDP2 (hTDP2) was 12 to 37 µM each time.
For the molecule `Cc1oc2c(c1C(=O)Oc1cccc(C#N)c1)C(=O)c1ncccc1C2=O` [Compound 26], the IC50 at recombinant human TDP2 and at human TDP2 (hTDP2) was 1 to 12 µM throughout.
Regarding `Cc1oc2c(c1C(=O)Nc1ccccc1O)C(=O)c1ncccc1C2=O` [Compound 18], the IC50 at recombinant human TDP2 was more than 111 µM.
As for `Cc1oc2c(c1C(=O)Oc1ccc(Br)cc1)C(=O)c1ncccc1C2=O` [Compound 31], the IC50 on recombinant human TDP2 and on human TDP2 (hTDP2) was 12 to 37 µM in each case.
For `CCOC(=O)c1c(CC)oc2c1C(=O)c1ncccc1C2=O` [Compound 65], the IC50 on recombinant human TDP2 was in the range of 37 to 111 µM.
As for `Cc1oc2c(c1C(=O)Oc1ccc(S(C)(=O)=O)cc1)C(=O)c1ncccc1C2=O` [Compound 44], the IC50 at recombinant human TDP2 and on human TDP2 (hTDP2) was 12 to 37 µM in each case.
As for `Cc1oc2c(c1C(=O)Oc1cccc(-c3cn(CCCO)nn3)c1)C(=O)c1ncccc1C2=O` [Compound 34], the IC50 at recombinant human TDP2 and on human TDP2 (hTDP2) was 1 to 12 µM in each case.
For the molecule `COC(=O)c1sccc1OC(=O)c1c(C)oc2c1C(=O)c1ncccc1C2=O` [Compound 62], the IC50 was in the range of 12 to 37 µM on recombinant human TDP2 and 1 to 12 µM at human TDP2 (hTDP2).
For `Cc1oc2c(c1C(=O)OCCOCCO)C(=O)c1ncccc1C2=O` [Compound 36], in that order: 12 to 37 µM and 12 to 37 µM.
On to `CCOC(=O)c1c(CC)oc2c1C(=O)c1ncccc1C2=O` [Compound 66], for which, at recombinant human TDP2, the IC50 was 12 to 37 µM.
Same read-out and setting: for `CC(=O)c1c(C)oc2c1C(=O)c1cccnc1C2=O` [Compound 8, 3-acetyl-2-methylfuro[3,2-g]quinoline-4,9-dione] the value was more than 111 µM; for `CNC1=C(Cl)C(=O)c2ncccc2C1=O` [Compound 6], more than 111 µM.
Take `CC(=O)N1CCN(c2ccc(OC(=O)c3c(C)oc4c3C(=O)c3ncccc3C4=O)cc2)CC1` [Compound 61]: the IC50 lay within 37 to 111 µM at recombinant human TDP2 and 1 to 12 µM at human TDP2 (hTDP2).
In the same order, the values of `Cc1oc2c(c1C(=O)Oc1ccccc1)C(=O)c1ncccc1C2=O` [Compound 14] are 12 to 37 µM and 1 to 12 µM.
Regarding `Cc1oc2c(c1C(=O)Nc1cccc(O)c1)C(=O)c1ncccc1C2=O` [Compound 21], at recombinant human TDP2, the IC50 was more than 111 µM.
Turning to `Cc1oc2c(c1C(=O)OC[C@H]1COC(C)(C)O1)C(=O)c1ncccc1C2=O` [Compound 38], the IC50 at recombinant human TDP2 and on human TDP2 (hTDP2) was 1 to 12 µM throughout.
Turning to `Cc1oc2c(c1C(=O)OCCCO)C(=O)c1ncccc1C2=O` [Compound 11], the IC50 at recombinant human TDP2 lay within 12 to 37 µM; at human TDP2 (hTDP2) it was 1 to 12 µM.
Consider `CCOC(=O)C1=C(C)C(C(=O)OCC)C2=C1C(=O)c1ncccc1C2=O` (centres unmarked) [Compound 4], for which the IC50 at recombinant human TDP2 was more than 111 µM.
With `CCOC(=O)c1c(-c2ccccc2)oc2c1C(=O)c1cccnc1C2=O` [Compound 29, Ethyl 4,9-dioxo-2-phenyl-4,9-dihydrofuro[3,2-g]quinoline-3-carboxylate], the results for the IC50 on recombinant human TDP2 and on human TDP2 (hTDP2) were 37 to 111 µM and 12 to 37 µM, respectively.
In the same order, the values of `Cc1oc2c(c1C(=O)Oc1ccc(Cl)cc1)C(=O)c1ncccc1C2=O` [Compound 27] are 1 to 12 µM and 1 to 12 µM.
For `Cc1oc2c(c1C(=O)Oc1cccc(-c3cn(CCC(=O)O)nn3)c1)C(=O)c1ncccc1C2=O` [Compound 33], in that order: 12 to 37 µM and 12 to 37 µM.
For `COP(=O)(CCOC(=O)c1c(C)oc2c1C(=O)c1ncccc1C2=O)OC` [Compound 22], in that order: 1 to 12 µM and 12 to 37 µM.
As for `CCOC(=O)c1noc2c1C(=O)c1ncccc1C2=O` [Compound 73], the IC50 on recombinant human TDP2 was not above 1 µM.
On to `Cc1oc2c(c1C(=O)Oc1cccnc1)C(=O)c1ncccc1C2=O` [Compound 28], for which the IC50 on recombinant human TDP2 and at human TDP2 (hTDP2) was 1 to 12 µM in each case.
Regarding `Cc1oc2c(c1C(=O)Nc1cccc(Cl)c1)C(=O)c1ncccc1C2=O` [Compound 17], on recombinant human TDP2, the IC50 is more than 111 µM.
Consider `C#Cc1cccc(OC(=O)c2c(C)oc3c2C(=O)c2ncccc2C3=O)c1` [Compound 32], for which the IC50 is 37 to 111 µM on recombinant human TDP2 and 12 to 37 µM on human TDP2 (hTDP2).
In the same order, the values of `Cc1oc2c(c1C(=O)OCCc1cn(CCC(=O)O)nn1)C(=O)c1ncccc1C2=O` [Compound 42] are 12 to 37 µM and 12 to 37 µM.
For `O=C(Oc1ccc(OCCCN2CCOCC2)cc1)c1coc2c1C(=O)c1ncccc1C2=O` [Compound 59], in that order: 37 to 111 µM and 1 to 12 µM.
`Cc1oc2c(c1C(=O)Oc1ccc3ccccc3c1)C(=O)c1ncccc1C2=O` [Compound 25]: on recombinant human TDP2, the IC50 was more than 111 µM.
As to `Cc1oc2c(c1C(=O)Oc1cccc(O)c1)C(=O)c1ncccc1C2=O` [Compound 12], the IC50 was in the range of 12 to 37 µM at recombinant human TDP2 and 1 to 12 µM on human TDP2 (hTDP2).
For `Cc1oc2c(c1C(=O)Oc1ccccc1Cl)C(=O)c1ncccc1C2=O` [Compound 24], in that order: 1 to 12 µM and 12 to 37 µM.
In the same order, the values of `CCOC(=O)c1c(C(C)C)oc2c1C(=O)c1ncccc1C2=O` [Compound 64] are 12 to 37 µM and not above 1 µM.
Regarding `Cc1oc2c(c1C(=O)Nc1ccccc1)C(=O)c1ncccc1C2=O` [Compound 16], the IC50 at recombinant human TDP2 is more than 111 µM.
Same read-out and setting: for `C=CC(=O)Nc1ccc(OC(=O)c2c(C)oc3c2C(=O)c2ncccc2C3=O)cc1` [Compound 68] the value was 12 to 37 µM; for `CCOC(=O)c1c(CN2CCOCC2)oc2c1C(=O)c1ncccc1C2=O` [Compound 72], 1 to 12 µM.
Still for that read-out and setting: for `Cc1oc2c(c1C(=O)Oc1ccc(N)cc1)C(=O)c1ncccc1C2=O` [Compound 70] the value was 1 to 12 µM.
Same read-out and setting: for `CCOC(=O)c1c2c(n(C)c1C)C(=O)c1ncccc1C2=O` [Compound 5] the value was more than 111 µM; for `CCNC(=O)c1c(C)oc2c1C(=O)c1ncccc1C2=O` [Compound 20], more than 111 µM.
